Target: human recombinant PAK1-KD protein (Homo sapiens, UniProt Q13153)
Experiment: PAK1-KD (Kinase Domain) IC50 Zlyte Assay (FRET peptide substrate phosphorylation)
Settings: Z'-LYTE, Biological Example 1
Text: PAK1-KD (Kinase Domain) IC50 Zlyte Assay Protocol
Activity of human recombinant PAK1-KD protein may be assessed in vitro by assay of the phosphorylation of a FRET peptide substrate. Catalytically active human recombinant PAK1-KD protein is obtained by purification from Tini cells infected with a human PAK1-KD recombinant baculovirus expression vector.
The activity/inhibition of PAK1-KD was estimated by measuring the phosphorylation of a FRET peptide substrate (Ser/Thr19) labeled with Coumarin and Fluorescein using Z′-LYTE™ assay (Invitrogen). The peptide substrate is a consensus sequence ([sequence]) based on various PAK substrates reported in the scientific literature. […] Incubations were carried out at 22° C. in black polypropylene 384-well plates (Corning Costar).

Sequence of human recombinant PAK1-KD protein (Q13153 270-521 limits assumed): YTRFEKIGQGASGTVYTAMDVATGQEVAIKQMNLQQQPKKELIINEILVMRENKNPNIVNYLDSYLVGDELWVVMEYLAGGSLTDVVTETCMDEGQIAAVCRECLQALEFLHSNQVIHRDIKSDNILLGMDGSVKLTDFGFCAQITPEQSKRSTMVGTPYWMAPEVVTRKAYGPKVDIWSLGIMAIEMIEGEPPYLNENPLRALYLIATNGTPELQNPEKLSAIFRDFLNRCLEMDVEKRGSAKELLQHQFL

Structure (SMILES) | Ki
Cc1cccc(-c2ccc(-c3cc4cnc(NC5COC5)nc4n(CC(=O)N4CCNCC4)c3=O)c(Cl)c2)n1 [Example I-94, 6-[2-Chloro-4-(6-methyl-2-pyridyl)phenyl]-2-(oxetan-3-ylamino)-8-(2-oxo-2-piperazin-1-yl-ethyl)pyrido[2,3-d]pyrimidin-7-one] | 15.9 nM
CNc1ncc2cc(-c3ccc(-c4cncc(C)n4)cc3Cl)c(=O)n(CCN3CCOCC3)c2n1 [Example I-158, 6-[2-chloro-4-(6-methylpyrazin-2-yl)phenyl]-2-(methylamino)-8-(2-morpholinoethyl)pyrido[2,3-d]pyrimidin-7-one] | 78.2 nM
CNc1ncc2cc(-c3ccc(-c4cncc(C)n4)cc3Cl)c(=O)n(CC(=O)N3CC[C@@H](N)C3)c2n1 [Example I-152, 8-[2-[(3R)-3-Aminopyrrolidin-1-yl]-2-oxo-ethyl]-6-[2-chloro-4-(6-methylpyrazin-2-yl)phenyl]-2-(methylamino)pyrido[2,3-d]pyrimidin-7-one] | 21.1 nM
CCNc1ncc2cc(-c3ccc(-c4cccc(C)n4)cc3Cl)c(=O)n(CC(=O)N3CCOCC3)c2n1 [Example I-120, 6-[2-chloro-4-(6-methyl-2-pyridyl)phenyl]-2-(ethylamino)-8-(2-morpholino-2-oxo-ethyl)pyrido[2,3-d]pyrimidin-7-one] | 20.8 nM
CNc1ncc2cc(-c3ccc(-c4cncc(C)n4)cc3Cl)c(=O)n(CC(=O)NCCO)c2n1 [Example I-85, 2-[6-[2-Chloro-4-(6-methylpyrazin-2-yl)phenyl]-2-(methylamino)-7-oxo-pyrido[2,3-d]pyrimidin-8-yl]-N-(2-hydroxyethyl)acetamide] | 92.9 nM
CCNc1ncc2cc(-c3ccc(-c4cc(C)cnn4)cc3Cl)c(=O)n(C[C@H]3CC[C@H](N)CC3)c2n1 [Example I-77, 8-(((1R,4R)-4-Aminocyclohexyl)methyl)-6-(2-chloro-4-(5-methylpyridazin-3-yl)phenyl)-2-(ethylamino)pyrido[2,3-d]pyrimidin-7(8H)-one] | 30.7 nM
Cc1cccc(-c2ccc(-c3cc4cnc(NC(C)C)nc4n(CCN4CCNCC4)c3=O)c(Cl)c2)n1 [Example I-68, 6-(2-Chloro-4-(6-methylpyridin-2-yl)phenyl)-2-(isopropylamino)-8-(2-(piperazin-1-yl)ethyl)pyrido[2,3-d]pyrimidin-7(8H)-one] | 1.6 nM
CNc1ncc2cc(-c3ccc(-c4cccc(C)n4)cc3C)c(=O)n(CCC3CNCCO3)c2n1 (single isomer, unassigned) [Example I-104, 6-(2-Methyl-4-(6-methylpyridin-2-yl)phenyl)-2-(methylamino)-8-(2-(morpholin-2-yl)ethyl)pyrido[2,3-d]pyrimidin-7(8H)-one] | 2.3 nM
CNc1ncc2cc(-c3ccc(-c4cncc(C)n4)cc3Cl)c(=O)n(C[C@H]3OC[C@H](NC)CO3)c2n1 [Example I-178, 6-[2-Chloro-4-(6-methylpyrazin-2-yl)phenyl]-2-(methylamino)-8-[[5-(methylamino)-1,3-dioxan-2-yl]methyl]pyrido[2,3-d]pyrimidin-7-one] | 13.5 nM
Cc1cccc(-c2ccc(-c3cc4cnc(NC5COC5)nc4n(CCC4CNCCO4)c3=O)c(C)c2)n1 (single isomer, unassigned) [Example I-113, 6-(2-Methyl-4-(6-methylpyridin-2-yl)phenyl)-8-(2-(morpholin-2-yl)ethyl)-2-(oxetan-3-ylamino)pyrido[2,3-d]pyrimidin-7(8H)-one] | 1.7 nM
CNc1ncc2cc(-c3ccc(-c4cccc(C)n4)cc3Cl)c(=O)n(CC3CCN(C)CC3)c2n1 [Example I-175, 6-[2-chloro-4-(6-methyl-2-pyridyl)phenyl]-2-(methylamino)-8-[(1-methyl-4-piperidyl)methyl]pyrido[2,3-d]pyrimidin-7-one] | 19.8 nM
CNc1ncc2cc(-c3ccc(-c4cccc(C)n4)cc3C)c(=O)n(CC3C4CN(C)CC43)c2n1 (stereo not shown) [Example I-186, 2-(methylamino)-8-[(3-methyl-3-azabicyclo[3.1.0]hexan-6-yl)methyl]-6-[2-methyl-4-(6-methyl-2-pyridyl)phenyl]pyrido[2,3-d]pyrimidin-7-one] | 11.9 nM
CNc1ncc2cc(-c3ccc(-c4csc(C)n4)cc3Cl)c(=O)n(C[C@@H]3CNCCO3)c2n1 [Example I-179, 6-[2-chloro-4-(2-methylthiazol-4-yl)phenyl]-2-(methylamino)-8-[[(2S)-morpholin-2-yl]methyl]pyrido[2,3-d]pyrimidin-7-one] | 66.6 nM
CCNc1ncc2cc(-c3ccc(-c4cccc(C)n4)cc3Cl)c(=O)n(CCS(=O)(=O)C3CNC3)c2n1 [Example I-160, 8-[2-(azetidin-3-ylsulfonyl)ethyl]-6-[2-chloro-4-(6-methyl-2-pyridyl)phenyl]-2-(ethylamino)pyrido[2,3-d]pyrimidin-7-one] | 10.3 nM
Cc1cccc(-c2ccc(-c3cc4cnc(NC5COC5)nc4n(CCCO)c3=O)c(C)c2)n1 [Example I-168, 8-(3-hydroxypropyl)-6-[2-methyl-4-(6-methyl-2-pyridyl)phenyl]-2-(oxetan-3-ylamino)pyrido[2,3-d]pyrimidin-7-one] | 15.7 nM
CCNc1ncc2cc(-c3ccc(-c4cncc(C)n4)cc3Cl)c(=O)n(C[C@H]3[C@@H]4CNC[C@@H]43)c2n1 [Example I-82, 8-((1R,5S,6R)-3-Azabicyclo[3.1.0]hexan-6-ylmethyl)-6-(2-chloro-4-(6-methylpyrazin-2-yl)phenyl)-2-(ethylamino)pyrido[2,3-d]pyrimidin-7(8H)-one] | 9.6 nM

Structure (SMILES) | Ki
Cc1cncc(-c2ccc(-c3cc4cnc(NC5COC5)nc4n(C[C@@H]4CNCCO4)c3=O)c(Cl)c2)n1 [Example I-149, 6-[2-Chloro-4-(6-methylpyrazin-2-yl)phenyl]-8-[[(2S)-morpholin-2-yl]methyl]-2-(oxetan-3-ylamino)pyrido[2,3-d]pyrimidin-7-one] | 9 nM
CNc1ncc2cc(-c3ccc(-c4cncc(C)n4)cc3Cl)c(=O)n(CCC3CNC(=O)C3)c2n1 (stereo not shown) [Example I-109, 6-[2-Chloro-4-(6-methylpyrazin-2-yl)phenyl]-2-(methylamino)-8-[2-(5-oxopyrrolidin-3-yl)ethyl]pyrido[2,3-d]pyrimidin-7-one] | 43.3 nM
Cc1cccc(-c2ccc(-c3cc4cnc(NC(C)C)nc4n(CC(=O)N4CCNCC4)c3=O)c(Cl)c2)n1 [Example I-35, 6-[2-Chloro-4-(6-methyl-2-pyridyl)phenyl]-2-(isopropylamino)-8-(2-oxo-2-piperazin-1-yl-ethyl)pyrido[2,3-d]pyrimidin-7-one] | 4.2 nM
Cc1cccc(-c2ccc(-c3cc4cnc(NC5COC5)nc4n(CC[C@H]4OC[C@@H](N)CO4)c3=O)c(Cl)c2)n1 [Example I-133] | 0.9 nM
CCNc1ncc2cc(-c3ccc(-c4cncc(C)n4)cc3Cl)c(=O)n(CCOC3CC(N)C3)c2n1 (stereo not shown) [Example I-117, 8-(2-(3-Aminocyclobutoxy)ethyl)-6-(2-chloro-4-(6-methylpyrazin-2-yl)phenyl)-2-(ethylamino)-pyrido[2,3-d]pyrimidin-7(8H)-one] | 3.7 nM
CNc1ncc2cc(-c3ccc(-c4cccc(C)n4)cc3C)c(=O)n(CC(=O)N3CCNCC3)c2n1 [Example I-95, 2-(Methylamino)-6-[2-methyl-4-(6-methyl-2-pyridyl)phenyl]-8-(2-oxo-2-piperazin-1-yl-ethyl)pyrido[2,3-d]pyrimidin-7-one] | 27.3 nM
Cc1cncc(-c2ccc(-c3cc4cnc(N)nc4n(C[C@H]4OC[C@H](N)CO4)c3=O)c(Cl)c2)n1 [Example I-163, 2-amino-8-[(5-amino-1,3-dioxan-2-yl)methyl]-6-[2-chloro-4-(6-methylpyrazin-2-yl)phenyl]pyrido[2,3-d]pyrimidin-7-one] | 26.9 nM
CCc1cc(-c2cccc(C)n2)ccc1-c1cc2cnc(NC3COC3)nc2n(C[C@@H]2CNCCO2)c1=O [Example I-194] | 26.5 nM
CCNc1ncc2cc(-c3ccc(-c4cccc(C)n4)cc3C)c(=O)n(CCC3CNCCO3)c2n1 (single isomer, unassigned) [Example I-112, 2-(Ethylamino)-6-(2-methyl-4-(6-methylpyridin-2-yl)phenyl)-8-(2-(morpholin-2-yl)ethyl)pyrido[2,3-d]pyrimidin-7(8H)-one] | 1 nM
CNc1ncc2cc(-c3ccc(-c4csc(C)n4)cc3Cl)c(=O)n(C[C@H]3OC[C@H](N)CO3)c2n1 [Example I-190, 8-[(5-amino-1,3-dioxan-2-yl)methyl]-6-[2-chloro-4-(2-methylthiazol-4-yl)phenyl]-2-(methylamino)pyrido[2,3-d]pyrimidin-7-one] | 15.2 nM
Cc1cccc(-c2ccc(-c3cc4cnc(NC5COC5)nc4n(CCOCCN)c3=O)c(Cl)c2)n1 [Example I-63, 8-[2-(2-Aminoethoxy)ethyl]-6-[2-chloro-4-(6-methyl-2-pyridyl)phenyl]-2-(oxetan-3-ylamino)pyrido[2,3-d]pyrimidin-7-one] | 0.3 nM
Cc1cncc(-c2ccc(-c3cc4cnc(NC5COC5)nc4n(CCCCO)c3=O)c(Cl)c2)n1 [Example I-50, 6-[2-Chloro-4-(6-methylpyrazin-2-yl)phenyl]-8-(4-hydroxybutyl)-2-(oxetan-3-ylamino)pyrido[2,3-d]pyrimidin-7-one] | 45.6 nM
Cc1cncc(-c2ccc(-c3cc4cnc(NC(C)C)nc4n(CCC4CCNC4=O)c3=O)c(Cl)c2)n1 (stereo not shown) [Example I-100, 6-[2-Chloro-4-(6-methylpyrazin-2-yl)phenyl]-2-(isopropylamino)-8-[2-(2-oxopyrrolidin-3-yl)ethyl]pyrido[2,3-d]pyrimidin-7-one] | 18.5 nM
CNc1ncc2cc(-c3ccc(-c4ncn(C)n4)cc3Cl)c(=O)n(C[C@H]3CNCCO3)c2n1 [Example I-192, 6-[2-chloro-4-(1-methyl-1 2 4-triazol-3-yl)phenyl]-2-(methylamino)-8-[[(2R)-morpholin-2-yl]methyl]pyrido[2,3-d]pyrimidin-7-one] | 4400 nM
CNc1ncc2cc(-c3ccc(-c4cccc(C)n4)cc3Cl)c(=O)n(C[C@@H]3CN(C)CCO3)c2n1 [Example I-183, 6-[2-chloro-4-(6-methyl-2-pyridyl)phenyl]-2-(methylamino)-8-[[(2S)-4-methylmorpholin-2-yl]methyl]pyrido[2,3-d]pyrimidin-7-one] | 26.8 nM
